Measured values taken from patent US20230085307A1, “PYRIDAZINONE COMPOUND AND HERBICIDE” (NISSAN CHEMICAL CORPORATION, priority 2019, published 2023).

Tests used:
[1] = system: barnyard grass; assay: Test Example 3: herbicidal effect by foliage application, Wagner pot (Table 18, symbol H); type: in vivo, barnyard grass (Echinochloa crus-galli); settings: amount of applied herbicide 320 g/ha
In short: (§1)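 Plants were sown in alluvial soil held under 0.1–0.5 cm standing water and grown 14 days in a greenhouse at 25–30 °C. An emulsifiable formulation, water-diluted to the set dose, was then sprayed onto the foliage, and effects were scored three weeks later using previously defined criteria.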

[2] = system: Italian ryegrass; assay: Test Example 4: herbicidal effect by soil treatment (Table 19, symbol K); type: in vivo, Italian ryegrass (Lolium multiflorum); settings: amount of applied herbicide 320 g/ha
In short: (§2)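 Step 1: sow seeds in sterilized diluvial soil, cover ~1.5 cm. Step 2: spray diluted emulsion onto soil surface at predetermined rate. Step 3: greenhouse, 25–30° C, three weeks. Step 4: grade effect on each plant by earlier criteria.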

[3] = system: redroot pigweed; assay: Test Example 5: herbicidal effect by foliage application, plastic box (Table 20, symbol N); type: in vivo, redroot pigweed (Amaranthus retroflexus); settings: foliage application, 320 g/ha, evaluated three weeks after application
In short: (§3)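 Foliar spray test: emulsion formulation diluted in water to a set application rate, sprayed onto 14-day-old plants raised in diluvial soil at 25° C to 30° C under glass. Both herbicidal effect and crop effect rated visually three weeks later.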

[4] = system: green foxtail; assay: Test Example 5: herbicidal effect by foliage application, plastic box (Table 20, symbol G); type: in vivo, green foxtail (Setaria viridis); settings: foliage application, 320 g/ha, evaluated three weeks after application
In short: as §3

[5] = system: velvetleaf; assay: Test Example 5: herbicidal effect by foliage application, plastic box (Table 20, symbol M); type: in vivo, velvetleaf (Abutilon theophrasti); settings: foliage application, 320 g/ha, evaluated three weeks after application
In short: as §3

[6] = system: green foxtail; assay: Test Example 4: herbicidal effect by soil treatment (Table 19, symbol G); type: in vivo, green foxtail (Setaria viridis); settings: amount of applied herbicide 320 g/ha
In short: as §2

[7] = system: velvetleaf; assay: Test Example 4: herbicidal effect by soil treatment (Table 19, symbol M); type: in vivo, velvetleaf (Abutilon theophrasti); settings: amount of applied herbicide 320 g/ha
In short: as §2

[8] = system: windgrass; assay: Test Example 4: herbicidal effect by soil treatment (Table 19, symbol L); type: in vivo, windgrass (Apera spica-venti); settings: amount of applied herbicide 320 g/ha
In short: as §2

[9] = system: barnyard grass; assay: Test Example 5: herbicidal effect by foliage application, plastic box (Table 20, symbol H); type: in vivo, barnyard grass (Echinochloa crus-galli); settings: foliage application, 320 g/ha, evaluated three weeks after application
In short: as §3

[10] = system: wild oat; assay: Test Example 5: herbicidal effect by foliage application, plastic box (Table 20, symbol I); type: in vivo, wild oat (Avena fatua); settings: foliage application, 320 g/ha, evaluated three weeks after application
In short: as §3

[11] = system: chickweed; assay: Test Example 5: herbicidal effect by foliage application, plastic box (Table 20, symbol P); type: in vivo, common chickweed (Stellaria media); settings: foliage application, 320 g/ha, evaluated three weeks after application
In short: as §3

[12] = system: blackgrass; assay: Test Example 5: herbicidal effect by foliage application, plastic box (Table 20, symbol J); type: in vivo, blackgrass (Alopecurus myosuroides); settings: foliage application, 320 g/ha, evaluated three weeks after application
In short: as §3

[13] = system: oval-leafed pondweed; assay: Test Example 1: herbicidal activity, application before weed generation under submerged conditions (Table 16, symbol C); type: in vivo, oval-leafed pondweed (Monochoria vaginalis); settings: 320 g/ha applied herbicide
In short: (§4)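 Alluvial soil was flooded to 4 cm depth, weed seeds were sown mixed and 2.5-leaf rice seedlings were transplanted. On sowing day, the compound's emulsion, diluted in water to a set dose, was applied to the water surface. Plants grew at 25–30 °C and were scored 0–5 after three weeks.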

[14] = system: persian speedwell; assay: Test Example 4: herbicidal effect by soil treatment (Table 19, symbol R); type: in vivo, Persian speedwell (Veronica persica); settings: amount of applied herbicide 320 g/ha
In short: as §2

[15] = system: persian speedwell; assay: Test Example 5: herbicidal effect by foliage application, plastic box (Table 20, symbol R); type: in vivo, Persian speedwell (Veronica persica); settings: foliage application, 320 g/ha, evaluated three weeks after application
In short: as §3

[16] = system: rice flat sedge; assay: Test Example 3: herbicidal effect by foliage application, Wagner pot (Table 18, symbol E); type: in vivo, rice flat sedge (Cyperus iria); settings: amount of applied herbicide 320 g/ha
In short: as §1

[17] = system: southern crabgrass; assay: Test Example 5: herbicidal effect by foliage application, plastic box (Table 20, symbol F); type: in vivo, southern crabgrass (Digitaria ciliaris); settings: foliage application, 320 g/ha, evaluated three weeks after application
In short: as §3

[18] = system: southern crabgrass; assay: Test Example 4: herbicidal effect by soil treatment (Table 19, symbol F); type: in vivo, southern crabgrass (Digitaria ciliaris); settings: amount of applied herbicide 320 g/ha
In short: as §2

[19] = system: redroot pigweed; assay: Test Example 4: herbicidal effect by soil treatment (Table 19, symbol N); type: in vivo, redroot pigweed (Amaranthus retroflexus); settings: amount of applied herbicide 320 g/ha
In short: as §2

[20] = system: wild oat; assay: Test Example 4: herbicidal effect by soil treatment (Table 19, symbol I); type: in vivo, wild oat (Avena fatua); settings: amount of applied herbicide 320 g/ha
In short: as §2

[21] = system: Japanese bulrush; assay: Test Example 1: herbicidal activity, application before weed generation under submerged conditions (Table 16, symbol B); type: in vivo, Japanese bulrush (Schoenoplectus juncoides); settings: 320 g/ha applied herbicide
In short: as §4

[22] = system: blackgrass; assay: Test Example 4: herbicidal effect by soil treatment (Table 19, symbol J); type: in vivo, blackgrass (Alopecurus myosuroides); settings: amount of applied herbicide 320 g/ha
In short: as §2

[23] = system: Italian ryegrass; assay: Test Example 5: herbicidal effect by foliage application, plastic box (Table 20, symbol K); type: in vivo, Italian ryegrass (Lolium multiflorum); settings: foliage application, 320 g/ha, evaluated three weeks after application
In short: as §3

[24] = system: windgrass; assay: Test Example 5: herbicidal effect by foliage application, plastic box (Table 20, symbol L); type: in vivo, windgrass (Apera spica-venti); settings: foliage application, 320 g/ha, evaluated three weeks after application
In short: as §3

[25] = system: barnyard grass; assay: Test Example 4: herbicidal effect by soil treatment (Table 19, symbol H); type: in vivo, barnyard grass (Echinochloa crus-galli); settings: amount of applied herbicide 320 g/ha
In short: as §2

[26] = system: chickweed; assay: Test Example 4: herbicidal effect by soil treatment (Table 19, symbol P); type: in vivo, common chickweed (Stellaria media); settings: amount of applied herbicide 320 g/ha
In short: as §2

[27] = system: Chinese sprangletop; assay: Test Example 3: herbicidal effect by foliage application, Wagner pot (Table 18, symbol D); type: in vivo, chinese sprangletop (Leptochloa chinensis); settings: amount of applied herbicide 320 g/ha
In short: as §1

[28] = system: lambsquarters; assay: Test Example 4: herbicidal effect by soil treatment (Table 19, symbol O); type: in vivo, lambsquarters (Chenopodium album); settings: amount of applied herbicide 320 g/ha
In short: as §2

[29] = system: lambsquarters; assay: Test Example 5: herbicidal effect by foliage application, plastic box (Table 20, symbol O); type: in vivo, lambsquarters (Chenopodium album); settings: foliage application, 320 g/ha, evaluated three weeks after application
In short: as §3

[30] = system: late watergrass; assay: Test Example 1: herbicidal activity, application before weed generation under submerged conditions (Table 16, symbol A); type: in vivo, late watergrass (Echinochloa oryzicola); settings: 320 g/ha applied herbicide
In short: as §4

COc1ccccc1-c1sc2ccc(C#C[Si](C)(C)C)cc2c1-c1c(O)c(C)nn(C)c1=O [2-188]
herbicidal effect on H: barnyard grass [1]: 4 (Herbicidal rate of 70% or more and less than 90%)
K: Italian ryegrass, herbicidal effect rating [2]: 0 (Herbicidal rate of 5% or less (almost no effect))
herbicidal effect on N: redroot pigweed (criteria 0-5) [3]: 3 (Herbicidal rate of 40% or more and less than 70%)
herbicidal effect on G: green foxtail (criteria 0-5) [4]: 0 (Herbicidal rate of 5% or less (almost no effect))
herbicidal effect on M: velvetleaf (criteria 0-5) [5]: 0 (Herbicidal rate of 5% or less (almost no effect))
G: green foxtail, herbicidal effect rating [6]: 0 (Herbicidal rate of 5% or less (almost no effect))
M: velvetleaf, herbicidal effect rating [7]: 0 (Herbicidal rate of 5% or less (almost no effect))
L: windgrass, herbicidal effect rating [8]: 0 (Herbicidal rate of 5% or less (almost no effect))
herbicidal effect on H: barnyard grass (criteria 0-5) [9]: 1 (Herbicidal rate of 5% or more and less than 20%)
herbicidal effect on I: wild oat (criteria 0-5) [10]: 0 (Herbicidal rate of 5% or less (almost no effect))
herbicidal effect on P: chickweed (criteria 0-5) [11]: 5 (Herbicidal rate of 90% or more (almost completely withered))
herbicidal effect on J: blackgrass (criteria 0-5) [12]: 4 (Herbicidal rate of 70% or more and less than 90%)
Herbicidal effect on C: oval-leafed pondweed (grade 0-5) [13]: 0 (Herbicidal rate of 5% or less (almost no effect))
R: persian speedwell, herbicidal effect rating [14]: 0 (Herbicidal rate of 5% or less (almost no effect))
herbicidal effect on R: persian speedwell (criteria 0-5) [15]: 1 (Herbicidal rate of 5% or more and less than 20%)
herbicidal effect on E: rice flat sedge [16]: 0 (Herbicidal rate of 5% or less (almost no effect))
herbicidal effect on F: southern crabgrass (criteria 0-5) [17]: 3 (Herbicidal rate of 40% or more and less than 70%)
F: southern crabgrass, herbicidal effect rating [18]: 0 (Herbicidal rate of 5% or less (almost no effect))
N: redroot pigweed, herbicidal effect rating [19]: 5 (Herbicidal rate of 90% or more (almost completely withered))
I: wild oat, herbicidal effect rating [20]: 0 (Herbicidal rate of 5% or less (almost no effect))
Herbicidal effect on B: Japanese bulrush (grade 0-5) [21]: 0 (Herbicidal rate of 5% or less (almost no effect))
J: blackgrass, herbicidal effect rating [22]: 0 (Herbicidal rate of 5% or less (almost no effect))
herbicidal effect on K: Italian ryegrass (criteria 0-5) [23]: 4 (Herbicidal rate of 70% or more and less than 90%)
herbicidal effect on L: windgrass (criteria 0-5) [24]: 4 (Herbicidal rate of 70% or more and less than 90%)
H: barnyard grass, herbicidal effect rating [25]: 0 (Herbicidal rate of 5% or less (almost no effect))
P: chickweed, herbicidal effect rating [26]: 0 (Herbicidal rate of 5% or less (almost no effect))
herbicidal effect on D: Chinese sprangletop [27]: 3 (Herbicidal rate of 40% or more and less than 70%)
O: lambsquarters, herbicidal effect rating [28]: 3 (Herbicidal rate of 40% or more and less than 70%)
herbicidal effect on O: lambsquarters (criteria 0-5) [29]: 2 (Herbicidal rate of 20% or more and less than 40%)
Herbicidal effect on A: late watergrass (grade 0-5) [30]: 4 (Herbicidal rate of 70% or more and less than 90%)

COc1ccccc1-c1sc2ccc(C#N)cc2c1-c1c(O)c(C)nn(C)c1=O [2-190]
herbicidal effect on H: barnyard grass [1]: 2 (Herbicidal rate of 20% or more and less than 40%)
K: Italian ryegrass, herbicidal effect rating [2]: 0 (Herbicidal rate of 5% or less (almost no effect))
herbicidal effect on N: redroot pigweed (criteria 0-5) [3]: 3 (Herbicidal rate of 40% or more and less than 70%)
herbicidal effect on G: green foxtail (criteria 0-5) [4]: 0 (Herbicidal rate of 5% or less (almost no effect))
herbicidal effect on M: velvetleaf (criteria 0-5) [5]: 3 (Herbicidal rate of 40% or more and less than 70%)
G: green foxtail, herbicidal effect rating [6]: 0 (Herbicidal rate of 5% or less (almost no effect))
M: velvetleaf, herbicidal effect rating [7]: 0 (Herbicidal rate of 5% or less (almost no effect))
L: windgrass, herbicidal effect rating [8]: 0 (Herbicidal rate of 5% or less (almost no effect))
herbicidal effect on H: barnyard grass (criteria 0-5) [9]: 0 (Herbicidal rate of 5% or less (almost no effect))
herbicidal effect on I: wild oat (criteria 0-5) [10]: 0 (Herbicidal rate of 5% or less (almost no effect))
herbicidal effect on P: chickweed (criteria 0-5) [11]: 5 (Herbicidal rate of 90% or more (almost completely withered))
herbicidal effect on J: blackgrass (criteria 0-5) [12]: 0 (Herbicidal rate of 5% or less (almost no effect))
Herbicidal effect on C: oval-leafed pondweed (grade 0-5) [13]: 0 (Herbicidal rate of 5% or less (almost no effect))
R: persian speedwell, herbicidal effect rating [14]: 0 (Herbicidal rate of 5% or less (almost no effect))
herbicidal effect on R: persian speedwell (criteria 0-5) [15]: 5 (Herbicidal rate of 90% or more (almost completely withered))
herbicidal effect on E: rice flat sedge [16]: 4 (Herbicidal rate of 70% or more and less than 90%)
herbicidal effect on F: southern crabgrass (criteria 0-5) [17]: 0 (Herbicidal rate of 5% or less (almost no effect))
F: southern crabgrass, herbicidal effect rating [18]: 0 (Herbicidal rate of 5% or less (almost no effect))
N: redroot pigweed, herbicidal effect rating [19]: 3 (Herbicidal rate of 40% or more and less than 70%)
I: wild oat, herbicidal effect rating [20]: 0 (Herbicidal rate of 5% or less (almost no effect))
Herbicidal effect on B: Japanese bulrush (grade 0-5) [21]: 0 (Herbicidal rate of 5% or less (almost no effect))
J: blackgrass, herbicidal effect rating [22]: 0 (Herbicidal rate of 5% or less (almost no effect))
herbicidal effect on K: Italian ryegrass (criteria 0-5) [23]: 0 (Herbicidal rate of 5% or less (almost no effect))
herbicidal effect on L: windgrass (criteria 0-5) [24]: 0 (Herbicidal rate of 5% or less (almost no effect))
H: barnyard grass, herbicidal effect rating [25]: 0 (Herbicidal rate of 5% or less (almost no effect))
P: chickweed, herbicidal effect rating [26]: 0 (Herbicidal rate of 5% or less (almost no effect))
herbicidal effect on D: Chinese sprangletop [27]: 2 (Herbicidal rate of 20% or more and less than 40%)
O: lambsquarters, herbicidal effect rating [28]: 5 (Herbicidal rate of 90% or more (almost completely withered))
herbicidal effect on O: lambsquarters (criteria 0-5) [29]: 2 (Herbicidal rate of 20% or more and less than 40%)
Herbicidal effect on A: late watergrass (grade 0-5) [30]: 3 (Herbicidal rate of 40% or more and less than 70%)
